# Reference: ChEMBL document CHEMBL1201862, “PubChem BioAssay data set” (2004)
#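 The compound was tested at five concentrations on cells cultured in 96-well plates, with a 48-hour exposure period. GI50 is the concentration that inhibits growth by half.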 Activity calls are given as the source filed them. Rule as the data show it: active = GI50 up to about 1.1 µM and inactive = higher.
# Columns and labels:
# Test in all cases: NCI tumour cell line growth inhibition, 48 h
# [1] = system: ACHN
# [2] = system: CAKI-1
# [3] = system: CCRF-CEM
# [4] = system: EKVX
# [5] = system: HCT-15
# [6] = system: HOP-92
# [7] = system: HT-29
# [8] = system: Hs-578T
# [9] = system: MCF7
# [10] = system: MDA-N
# [11] = system: Malme-3M
# [12] = system: NCI-H460
# [13] = system: SF-539
# [14] = system: SK-MEL-5
# [15] = system: SN12C
# [16] = system: SNB-19
# [17] = system: SW-620
# [18] = system: UO-31
# [19] = system: HOP-62
# [20] = system: SR
SMILES,GI50 [1],GI50 [2],GI50 [3],GI50 [4],GI50 [5] [µM],GI50 [6],GI50 [7],GI50 [8],GI50 [9],GI50 [10],GI50 [11],GI50 [12],GI50 [13],GI50 [14],GI50 [15],GI50 [16],GI50 [17],GI50 [18],GI50 [19],GI50 [20]
COc1ccc2c(c1OC)C(C(Cl)(Cl)Cl)N1CCc3cc4c(cc3C1=C2)OCO4 (configuration not stated),22.9 µM (inactive),40.8 µM (inactive),6.71 µM (inactive),42.7 µM (inactive),33.3,23.9 µM (inactive),25.8 µM (inactive),18.4 µM (inactive),28.1 µM (inactive),15.4 µM (inactive),11.5 µM (inactive),10.7 µM (inactive),35 µM (inactive),3.94 µM (inactive),13.1 µM (inactive),5.82 µM (inactive),21.2 µM (inactive),35.6 µM (inactive),–,–
CN(C)c1ccc(/C=C2\N=C(NNc3ccccc3)NC2=O)cc1,20.2 µM (inactive),26.2 µM (inactive),< 0.01 µM (active),19 µM (inactive),22,17.3 µM (inactive),16.9 µM (inactive),35 µM (inactive),17.9 µM (inactive),27.7 µM (inactive),38.2 µM (inactive),19.1 µM (inactive),19.5 µM (inactive),–,17.7 µM (inactive),35.6 µM (inactive),26.8 µM (inactive),31 µM (inactive),30.3 µM (inactive),–
CC1=Nc2c(C#N)ncn2N=C(C)C1,> 100 µM (inactive),> 100 µM (inactive),70.5 µM (inactive),–,–,> 100 µM (inactive),> 100 µM (inactive),> 100 µM (inactive),> 100 µM (inactive),> 100 µM (inactive),–,> 100 µM (inactive),> 100 µM (inactive),> 100 µM (inactive),> 100 µM (inactive),–,> 100 µM (inactive),> 100 µM (inactive),> 100 µM (inactive),> 100 µM (inactive)
O=C1C(NCCN2CCOCC2)=C(Cl)C(=O)c2ncccc21,1.1 µM (active),–,0.214 µM (active),1.48 µM (inactive),0.339,2.08 µM (inactive),0.637 µM (active),1.21 µM (inactive),0.326 µM (active),0.178 µM (active),0.564 µM (active),0.445 µM (active),1.18 µM (inactive),0.312 µM (active),1.36 µM (inactive),1.42 µM (inactive),0.105 µM (active),1.12 µM (active),1.6 µM (inactive),1.32 µM (inactive)
NC(CSc1nc2ccccn2c1[N+](=O)[O-])C(=O)O (configuration not stated),> 100 µM (inactive),> 100 µM (inactive),–,> 100 µM (inactive),> 100,> 100 µM (inactive),> 100 µM (inactive),> 100 µM (inactive),> 100 µM (inactive),> 100 µM (inactive),> 100 µM (inactive),> 100 µM (inactive),> 100 µM (inactive),> 100 µM (inactive),> 100 µM (inactive),> 100 µM (inactive),> 100 µM (inactive),2.49 µM (inactive),> 100 µM (inactive),61.1 µM (inactive)
Cc1cn(CCCCCOC(=O)NC(CCCNC(N)=O)C(=O)O)c(=O)[nH]c1=O (configuration not stated),> 100 µM (inactive),> 100 µM (inactive),> 100 µM (inactive),> 100 µM (inactive),> 100,> 100 µM (inactive),> 100 µM (inactive),> 100 µM (inactive),> 100 µM (inactive),> 100 µM (inactive),–,> 100 µM (inactive),> 100 µM (inactive),–,> 100 µM (inactive),> 100 µM (inactive),> 100 µM (inactive),> 100 µM (inactive),> 100 µM (inactive),> 100 µM (inactive)
Cc1cc2c(cc1-c1cc3c(cc1C)C(C(C)C)=C(O)C(=O)/C3=C\Nc1cccc3c(N)cccc13)/C(=C/Nc1cccc3c(N)cccc13)C(=O)C(O)=C2C(C)C,> 100 µM (inactive),> 100 µM (inactive),39.2 µM (inactive),> 100 µM (inactive),> 100,> 100 µM (inactive),> 100 µM (inactive),> 100 µM (inactive),> 100 µM (inactive),> 100 µM (inactive),> 100 µM (inactive),> 100 µM (inactive),–,> 100 µM (inactive),> 100 µM (inactive),> 100 µM (inactive),> 100 µM (inactive),30.8 µM (inactive),> 100 µM (inactive),65.8 µM (inactive)
COc1nc(N)c(C#N)c(C#N)c1C#N,> 10 µM (inactive),> 10 µM (inactive),–,–,> 10,> 10 µM (inactive),> 10 µM (inactive),> 10 µM (inactive),> 10 µM (inactive),> 10 µM (inactive),> 10 µM (inactive),–,> 10 µM (inactive),> 10 µM (inactive),> 10 µM (inactive),> 10 µM (inactive),> 10 µM (inactive),–,> 10 µM (inactive),> 10 µM (inactive)
Cc1ccc(/N=C2\SC(=S)N(CCC[N+](C)(C)C)\C2=N/c2ccc(C)cc2)cc1,13.2 µM (inactive),–,19.1 µM (inactive),17 µM (inactive),13.8,14.2 µM (inactive),14.8 µM (inactive),4.08 µM (inactive),21.6 µM (inactive),12.8 µM (inactive),18.1 µM (inactive),18.1 µM (inactive),–,10.9 µM (inactive),11.2 µM (inactive),8.24 µM (inactive),20.7 µM (inactive),18.5 µM (inactive),23.7 µM (inactive),7.03 µM (inactive)
OC1OC(c2ccc[nH]2)C(F)(F)C(F)(F)C1(F)F (configuration not stated),> 100 µM (inactive),87.3 µM (inactive),73.6 µM (inactive),> 100 µM (inactive),> 100,68.4 µM (inactive),> 100 µM (inactive),> 100 µM (inactive),> 100 µM (inactive),> 100 µM (inactive),> 100 µM (inactive),> 100 µM (inactive),> 100 µM (inactive),63.4 µM (inactive),> 100 µM (inactive),> 100 µM (inactive),> 100 µM (inactive),97.7 µM (inactive),> 100 µM (inactive),–
O=S(=O)(/N=S(/Nc1ccccc1)C(F)(F)Cl)c1ccccc1 (configuration not stated),> 100 µM (inactive),–,> 100 µM (inactive),> 100 µM (inactive),> 100,> 100 µM (inactive),> 100 µM (inactive),> 100 µM (inactive),> 100 µM (inactive),> 100 µM (inactive),> 100 µM (inactive),> 100 µM (inactive),> 100 µM (inactive),> 100 µM (inactive),> 100 µM (inactive),> 100 µM (inactive),> 100 µM (inactive),> 100 µM (inactive),> 100 µM (inactive),> 100 µM (inactive)
C/C=C(/C)C(=O)O[C@H](C[C@@H](C)[C@H]1CC(c2ccoc2)OC1=O)[C@@]1(C)C(=O)CCC2O[C@]21C (some centres not stated),> 100 µM (inactive),> 100 µM (inactive),> 100 µM (inactive),> 100 µM (inactive),> 100,–,> 100 µM (inactive),> 100 µM (inactive),> 100 µM (inactive),> 100 µM (inactive),> 100 µM (inactive),> 100 µM (inactive),> 100 µM (inactive),> 100 µM (inactive),–,> 100 µM (inactive),> 100 µM (inactive),> 100 µM (inactive),–,> 100 µM (inactive)
CCOC(=O)c1sc2c(c1OC(=O)c1ccco1)c(=O)n(-c1ccccc1)c(=S)n2-c1ccccc1,27.5 µM (inactive),34.3 µM (inactive),35.8 µM (inactive),21.3 µM (inactive),32.1,30.2 µM (inactive),55.2 µM (inactive),27.5 µM (inactive),41.3 µM (inactive),41.7 µM (inactive),15.8 µM (inactive),17.7 µM (inactive),30.7 µM (inactive),15.8 µM (inactive),23.7 µM (inactive),33.2 µM (inactive),42.1 µM (inactive),1.04 µM (active),32.1 µM (inactive),–
S=C(N/N=C\C(=N/NC(=S)N1CCCCC1)c1ccccc1)N1CCCCC1,1.69 µM (inactive),2.15 µM (inactive),–,1.97 µM (inactive),2.4,2.38 µM (inactive),2.23 µM (inactive),1.82 µM (inactive),2.81 µM (inactive),2.89 µM (inactive),1.91 µM (inactive),2.14 µM (inactive),2.36 µM (inactive),1.77 µM (inactive),1.95 µM (inactive),1.9 µM (inactive),2 µM (inactive),1.74 µM (inactive),2.43 µM (inactive),–
CC1=C(C)C(=O)OC(C(C)(O)C2(O)CC3OC34C3CC(O)C56OC5C=CC(=O)C6(C)C3CCC42C)C1 (configuration not stated),0.845 µM (active),2.5 µM (inactive),0.851 µM (active),2.36 µM (inactive),0.791,1.82 µM (inactive),1.15 µM (inactive),1.77 µM (inactive),1.21 µM (inactive),1.61 µM (inactive),0.762 µM (active),1.45 µM (inactive),2 µM (inactive),1.67 µM (inactive),2.82 µM (inactive),4.12 µM (inactive),3.03 µM (inactive),0.341 µM (active),11 µM (inactive),–
